Reference: patent US20230220416A1, “NOVEL TR[…] AND USES THEREOF” (priority 2020, published 2023)

How the values were obtained:
[1] = tested on: target cell; type: cell-based; settings: for transduction efficiency of a target cell, single enhancer (result in words): Amphotericin B 0.5-1 μg/mL, Silibinin 1 to 5 μM, Midostaurin 100 to 400 nM, Nystatin 100 μM, Natamycin 3 μM, Everolimus 1 μM, deoxyribonucleosides 0.3-2.5 mM, PEG-PLA-PEG 10 μg/mL, PEG-PCL-PEG 10 μg/mL, Resveratrol 5 μM, Prostaglandin E2 10 μM, Poloxamer synperonic F108 0.5-2 mg/mL, DMSO 1% (v/v), protamine salts 4 μg/mL; for suitability of approved therapeutic compounds as transduction enhancers (result in words): no concentration stated
Source text: The efficiency of a transduction experiment may be determined as known in the art. Preferably, transduction efficiency may be measured by determining the vector copy number (VCN) in a single cell after a transduction experiment or by measuring the average VCN in a population of cells after a transduction experiment. “Vector copy number” or “VCN” refers to the number of copies of a vector, or portion thereof, in a cell's genome. The average VCN may be determined from a population of cells or from individual cell colonies. Exemplary methods for determining VCN include any form of polymerase chain reaction (PCR), such as qPCR or digital droplet PCR, and flow cytometry. […] 479-487 or as described in Examples 1 or 5.
Several transduction enhancers and combinations of transduction enhancers reported herein result in an increase in transduction efficiency. An “increase in transduction efficiency” refers to an increase in VCN upon transduction of a cell population by a gene therapy vector in presence of a transduction enhancer compared to the absence of a transduction enhancer.

[2] = tested on: human CD34-positive HSC; test: Lentiviral SIN vector transduction of CD34-positive HSC at MOI 1, 3 or 5 in X-Vivo 20, VCN by qPCR (Example 1); settings: each with 4 μg/mL protamine sulfate, VCN with protamine sulfate only set as 1, 1 μg/mL Amphotericin B, 1 mg/ml Lentiboost
Source text: This vector encodes human p47phox cDNA under control of the miR223 internal promoter. Cells were transduced in presence of protamine sulfate only (resulting VCN set to 100%), or in presence of protamine sulfate (PS) plus one or more compounds tested for transduction enhancer activity. After 10 to 12 days post transduction, DNA from transduced cells was isolated, and VCNs were quantified by qPCR. The increase in VCN relative to the VCN achieved upon transduction in presence of protamine sulfate only was expressed as “fold induction rel. to PS”.
Thawed cells from healthy donors were cultured in 96 well plates comprising X-Vivo 20 medium supplemented with 1% human serum albumin, 300 μg/ml stem cell factor (SCF), 300 μg/ml fins like tyrosine kinase 3 (FLT-3) ligand (Flt3-lig) and 100 μng/ml Thrombopoietin (TPO) at a density of 0.5 E6 cells/cm^2, and at a concentration of 1E6 cells/ml for 22h, optionally followed by 2h of pre-stimulation with below mentioned compounds. Afterwards, cells were incubated for transduction with the lentiviral SIN gene therapy vector for 12 h in presence of the compounds indicated below and protamine sulfate. After the 12 h transduction period, the medium was exchanged by above mentioned medium, and cells were transferred to 12-well plates in which they were cultured in a volume of 1 ml for 5 to 7 days depending on cell density. Thereafter, medium was exchanged by fresh medium, and cells were cultured in 2 ml for another 6 days. At day 12 post transduction, DNA was isolated, and vector copy number (VCN) was quantified by qPCR. All experiments were conducted in triplicates. For negative control, a triplicate of non-transduced cells was cultured as described. To determine the baseline of transduction efficacy in presence of only protamine sulfate, cells were incubated with MOI 1, MOI 3 or MOI 5 of the lentiviral SIN vector in presence of 4 μg/mL protamine sulfate.
After 10 to 12 days, non-integrated pro-viral DNA was diluted out due to the proliferation of cells in the plate and VCNs were quantified thereafter by qPCR. Every condition was tested in triplicates and the average of VCNs of triplicates for each individual condition was calculated. To evaluate the transduction enhancement activity of the tested compounds, average VCNs of cells transduced in the presence of protamine sulfate was set as 1, and enhancement of transduction was expressed as X-fold increase relative to transduction in the presence of protamine sulfate only.

[3] = tested on: Human CD34+HSC; test: Lentiviral SIN vector transduction of CD34+ HSC at MOI 20 with or without 1% DMSO, VCN; type: cell-based; settings: 2 h pre-stimulation and 16 h incubation, X-Vivo 20, VCN without DMSO 0.915
Method: Cells were transduced in the absence and presence of 1% DMSO.
The transduction process comprised a 2 h pre-stimulation period in presence of 1% DMSO, followed by 16 h incubation of pre-stimulated cells with the gene therapy vector with an MOI 20 in presence of 1% DMSO.

[4] = MOI of 1, 5 μM Silibinin, 5 μM Resveratrol, 1 μM Everolimus, 0,4 μM Midostaurin, 100 μM Nystatin, 3 μM Natamycin

Compound	transduction efficiency of a target cell, single enhancer (result in words) [1]	suitability of approved therapeutic compounds as transduction enhancers (result in words) [1]	increase in the efficiency of lentiviral transduction (VCN), fold induction rel. to PS [2, 4]	increase in the efficiency of lentiviral transduction (VCN), fold induction rel. to PS ([2]; MOI of 3, 1 μM Everolimus)	vector copy number (VCN) [3]
2,3-Dihydro-3-(4-hydroxy-3-methoxyphenyl)-2-(hydroxymethyl)-6-(3,5,7-trihydroxy-4-oxobenzopyran-2-yl)benzodioxin [Silibinin]	enhances the transduction efficiency	efficient transduction enhancers	(factor 4.8) fold	–	–
C[C@@H]1[C@H](O)[C@@H](C)/C=C/C=C/C=C/C=C/C=C/C=C/C=C/[C@H](O[C@@H]2O[C@H](C)[C@@H](O)[C@H](N)[C@@H]2O)C[C@@H]2O[C@](O)(C[C@@H](O)C[C@@H](O)[C@H](O)CC[C@@H](O)C[C@@H](O)CC(=O)O[C@H]1C)C[C@H](O)[C@H]2C(=O)O [Amphotericin B]	enhances the transduction efficiency	efficient transduction enhancers	(factor 3) fold	(factor 2.2) fold	–
C[S+](C)[O-] [DMSO, Dimethyl sulfoxide]	enhances the transduction efficiency	–	–	–	1.16
CO[C@H]1C[C@@H]2CC[C@@H](C)[C@@](O)(O2)C(=O)C(=O)N2CCCC[C@H]2C(=O)O[C@H]([C@H](C)C[C@@H]2CC[C@@H](OCCO)[C@H](OC)C2)CC(=O)[C@H](C)/C=C(\C)[C@@H](O)[C@@H](OC)C(=O)[C@H](C)C[C@H](C)/C=C/C=C/C=C/1C [Everolimus]	enhances the transduction efficiency	–	(factor 13.5) fold	(factor 2.5) fold	–
Nc1nc(F)nc2c1ncn2[C@@H]1O[C@H](CO)[C@@H](O)[C@@H]1O [Fludarabine]	–	efficient transduction enhancers	–	–	–
CO[C@@H]1[C@H](N(C)C(=O)c2ccccc2)C[C@H]2O[C@]1(C)n1c3ccccc3c3c4c(c5c6ccccc6n2c5c31)C(=O)NC4 [Midostaurin]	–	–	(factor 4.2) fold	–	–
C[C@@H]1C/C=C/C=C/C=C/C=C/[C@H](O[C@@H]2O[C@H](C)[C@@H](O)[C@H](N)[C@@H]2O)C[C@@H]2O[C@](O)(C[C@@H](O)C[C@H]3O[C@@H]3/C=C/C(=O)O1)C[C@H](O)[C@H]2C(=O)O [Natamycin]	–	efficient transduction enhancers	–	–	–
C[C@@H]1[C@H](O)[C@@H](C)/C=C/C=C/CC/C=C/C=C/C=C/C=C/C(O[C@H]2O[C@H](C)[C@@H](O)[C@H](N)[C@@H]2O)CC2O[C@](O)(CC(O)C(O)CCC(O)CC(O)CC(O)CC(=O)O[C@H]1C)CC(O)C2C(=O)O (stereo partly shown) [Nystatin]	enhances the transduction efficiency	efficient transduction enhancers	(factor 2.6) fold	–	–
CCCCC[C@H](O)/C=C/[C@H]1[C@H](O)CC(=O)[C@@H]1C/C=C\CCCC(=O)O [Prostaglandin E2]	enhances the transduction efficiency	–	–	–	–
